US9352010B2, “Treatment of HIV-1 infection and AIDS” (The J. David Gladstone Institutes, priority 2011, dated 2016)
pIC50: −log10 of the molar value.

How the values were obtained:
HIV-1 = assay: microbe, parasite or virus in culture
Protocol: (A and C) Concentrations of T20 that block viral infection. […] One hour before incubation with the virus, cells were pretreated with T20 or left untreated. At 12 hours, cells were washed extensively and cultured under the same conditions. On day 9, the viral concentration was determined using a p24gag FLAQ assay. The amount of p24gag accumulated in the absence of drugs by each viral clone (A) or by SKY (C) was defined as 100%. (B and D) Effect of T20 on indirect killing. CFSE-labeled cells were co-cultured with cells infected with the indicated viral clones in the presence of 5 μM AZT and the indicated concentrations of T20. After 6 days, indirect killing in the mixed cultures was assessed. The number of viable CFSE-positive CD4 T-cells co-cultured with uninfected cells in the presence of AZT was defined as 100% (not shown). To allow successful initial infection the GIA-SKY mutants were pseudotyped with the VSV-G envelope. NL4-3, WT lab-adapted virus; WEAU 16-8, primary virus; SIM, T20-resistant virus; GIA-SKY, T20-dependent virus; GIA and SKY, single-domain mutant viruses. Representative data from three independent experiments with different donors are shown. See also FIG. 5, below.
HLACs were infected with viruses derived from the indicated HIV proviral clones in the presence of the indicated concentrations of AZT or in the absence of drugs. Six days after infection the amount of p24^gag in the medium was determined by FLAQ assay. The amount of p24^gag in the medium after infection wash (day 0) was defined as 0%. […] Viral incorporation of endogenous A3G was measured by immunoblot analysis of purified NL4-3 and Δvif NL4-3 virions harvested from 1 ml of supernatant from infected HLACs. Doses reflect 1:10 dilutions. […] Resting or activated CFSE-labeled cells were co-cultured with cells infected with WT or Δvif NL4-3 in the presence or absence of the following drugs, AZT (5 μM), AMD3100 (250 nM), the NNRTIs Efavirenz (100 nM), and Nevirapine (1 μM), or the integration inhibitors Raltegravir (30 μM) and 118-D-24 (60 μM). Data are representative of four independent experiments performed with cells from four different donors. (E) A method to assess indirect killing in HLAC with non-infectious HIV-1 clones. Fresh human tonsil is processed into HLAC and cells are cultured in suspension. At the same time 293T-cells are transfected with 1 μg HIV-1 DNA in a 24-well plate. After 12 hours, 293T-cells are washed and overlayed with 3×10^6 HLAC cells in RPMI in the presence of the indicated drugs. Virus-producing 293T-cells directly interact with target overlaying HLAC cells. After 24 hours, the HLAC suspensions are collected from wells and analyzed by flow cytometry. […] HLAC were cultured with the indicated drugs 3 hours before co-culture with 293T-cells. Percentages are normalized to the number of viable CD4 T-cells in HLAC overlaying non-transfected 293T-cells in the presence of AZT, as depicted by (*). Error bars represent standard error of the mean of three experiments performed using cells from three different HLAC donors.

ISRE-GFP H35 cells = assay: ISRE-GFP H35 reporter cells; format: cell-based, rat; settings: AZT 5 μM, efavirenz 100 nM, raltegravir 30 μM
Protocol: Hepatocyte-derived reporter ISRE-GFP H35 cells were maintained as previously described (King et al., 2007, Lab Chip 7:77-85; Patel et al., 2009, Proc Natl Acad Sci USA 106:12867-12872). For microscopic imaging, ISRE-GFP reporter H35 cells were cultured on 35 mm glass bottom culture dishes (MatTeck) and were treated with AZT (5 μM), Efavirenz (100 nM), or Raltegravir (30 μM) 12 hours before infection. Cells were then infected with 2 μg/ml of replication competent VSV-G pseudotyped NL4-3. After 48 hours incubation at 37° C., cells were fixed in 2% paraformaldehyde at 25° C. for 1 hour, washed with PBS and stained with 10 μg/ml Hoechst 33342 (Invitrogen) and 1 μg/ml 7-AAD (eBioscience) for 15 min at 25° C. Cells were washed 3 times with PBS and were analyzed with an Axio observer Z1 microscope (Zeiss) equipped with an EC Plan NEOFLUAR 10×/0.3 PHM27 objective, filter sets 38HE, 45, and 49, and an Axiocam MRM REV 3.

caspase-1 and caspase-3 = assay: Intracellular caspase activity after spinoculation with NL4-3; format: cell-based, human; settings: AZT 5 μM, efavirenz 100 nM, T20 10 μg/ml, 3 days
Protocol: HLACs were subjected to intracellular analysis of caspases activity and cytokine expression 3 days after spinoculation with NL4-3. Intracellular caspase-1, -3, -6, -8, and -9 activities were analyzed with a CaspaLux1 E1D2, Phiphilux G1D2, CaspaLux6 J1D2, CaspaLux 8 L1D2, and CaspaLux 9 M1D2 kits (OncoImmunin), respectively, at 37° C. for 15 min, followed by staining with PE anti-CD4, and APC anti-CD8, at 4° C. for 15 min. For annexin V analysis, cells were stained with APC-conjugated annexin V together with PE anti-CD4, FITC anti-CD8, and with 0.5 μg/ml ethidium monoazide (E-1374, Molecular Probes) for 15 min at 4° C. For intracellular cytokine capture, cells were incubated with 2 μM protein transport inhibitor GolgiStop (BD Biosciences) containing monensin, and 5 μg/ml Brefeldin A (EMD biosciences) at 37° C. for 6 hours before analysis. Cells were then stained with anti-CD4 and anti-CD8 antibodies at 4° C. for 15 min, and fixed in 1% paraformaldehyde at 4° C. for 1 hour. Fixed cells were washed extensively with PBS and were stained in 0.2% saponin buffer (PBS+2% FBS+0.2% saponin) containing PE anti-human TNFα (R&D Systems), FITC anti-human IFNβ (PBL Biomedical laboratories), PE anti-human IL-1β (BD Biosciences), or APC anti-phosphorylated p53 at serine 37 (pS37) at 4° C. for 1 hour.

| Compound | pIC50 (HIV-1; Human immunodeficiency virus 1, in Homo sapiens, read-out: concentration achieving half maximal inhibitory effect) | concentration that blocks viral replication (HIV-1; NL4-3-infected and AZT-sensitive clones) [µM] | GFP expression and cell death induced by VSV-G pseudotyped HIV-1 virions (ISRE-GFP H35 cells) | activation of caspase-1 and caspase-3 in abortively infected CD4 T-cells (caspase-1 and caspase-3) | concentration at which inhibition of infection begins (HIV-1) [µg/mL] | concentration giving complete inhibition of infection (HIV-1) [µg/mL] | concentration required for complete inhibition of infection (HIV-1) [µg/mL] | inhibition of infection (HIV-1) | replication of T20-dependent mutant GIA-SKY (HIV-1) |
| --- | --- | --- | --- | --- | --- | --- | --- | --- | --- |
| Cc1cn([C@H]2C[C@H](N=[N+]=[N-])[C@@H](CO)O2)c(=O)[nH]c1=O [AZT] | 6.30 | 0.5 | induced GFP expression and cell death in the presence or absence of AZT | – | – | – | – | – | – |
| O=C1Nc2ccc(Cl)cc2[C@@](C#CC2CC2)(C(F)(F)F)O1 [efavirenz] | – | – | blocked | prevented activation of these caspases | – | – | – | – | – |
| enfuvirtide | – | – | – | prevented activation of these caspases | > 2 | 0.1 | 10 | did not inhibit infection | readily replicated |
